How the values were obtained:
MDA-MB-453 [1] = experiment: drug sensitivity score (DSS), single agent (DSS (weighted AUC score)); higher = more sensitive (stronger viability decrease); extreme values may be limits of the assay; conditions: BLU9931 0 nM; 72 h
Procedure, shortened: (§1)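 Compounds from the FIMM Oncology set were predispensed in singlicate at five 10-fold dilutions (10,000-fold range) on 384-well plates. Each well then received 2000 MDA-MB-453 cells in medium with or without an FGFR4 inhibitor (100 nM final) and was kept at 37 °C, 5% CO2. Cellular ATP was read with CellTiterGlo 2.0 after 72 h and normalised per plate to percent viability from control wells. The drug sensitivity score is a weighted area under a four-parameter logistic fit.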

MDA-MB-453 [2] = experiment: drug sensitivity score (DSS), in combination with BLU9931 (DSS (weighted AUC score)); higher = more sensitive (stronger viability decrease); extreme values may be limits of the assay; conditions: BLU9931 100 nM; 72 h
Procedure, shortened: as §1

| Compound | drug sensitivity score (MDA-MB-453 [1]) | drug sensitivity score (MDA-MB-453 [2]) |
| --- | --- | --- |
| O=C(CCCCCCC(=O)Nc1ccc([C@H]2O[C@@H](CSc3nc(-c4ccccc4)c(-c4ccccc4)o3)C[C@@H](c3ccc(CO)cc3)O2)cc1)NO [Tubacin] | 2 | 1.7 |
| CN1CCc2c(c3ccccc3n2Cc2ccc(C(=O)NO)cc2)C1 [Tubastatin A] | 4.1 | 2.1 |
| Cc1cc(Nc2ncnc3ccc(NC4=NC(C)(C)CO4)cc23)ccc1Oc1ccn2ncnc2c1 [Tucatinib] | 0.5 | 0.8 |
| Nc1cc(F)ccc1NC(=O)c1ccc(CNC(=O)/C=C/c2cccnc2)cc1 [Tucidinostat] | 9.8 | 10.1 |
| CN[C@@H]1C[C@H]2O[C@@](C)([C@@H]1OC)n1c3ccccc3c3c4c(c5c6ccccc6n2c5c31)C(=O)N[C@H]4O [UCN-01] | 18.2 | 16 |
| COC(=O)c1ccc2c(c1)[nH]c1ncnc(NCCCN3CCCCC3)c12 [UM729] | 2 | 1.3 |
| COc1cc2c(NC3CCN(C(C)C)CC3)nc(C3CCCCC3)nc2cc1OCCCN1CCCC1 [UNC0638] | 0 | 4.9 |
| COc1cc2c(NC3CCN(C(C)C)CC3)nc(N3CCC(F)(F)CC3)nc2cc1OCCCN1CCCC1 [UNC0642] | 2.1 | 1.4 |
| O=C(c1ccc(C(=O)N2CCC(N3CCCC3)CC2)c(Nc2ccccc2)c1)N1CCC(N2CCCC2)CC1 [UNC1215] | 0 | 0 |
| CCCCNc1ncc(C(=O)NCc2ccc(-n3ccnc3)cc2)c(NC2CCC(O)CC2)n1 (configuration not stated) [UNC2881] | 0 | 0 |
| NC(=O)c1cccc(-c2cccc(OC(=O)NC3CCCCC3)c2)c1 [URB597] | 0 | 0 |
| CC(C)Nc1cc(-c2c[nH]c(C(=O)N[C@H](CO)c3cccc(Cl)c3)c2)c(Cl)cn1 [Ulixertinib] | 3.5 | 0.5 |
| CC[C@@H]1CN(C(=O)NCC(F)(F)F)C[C@@H]1c1cnc2cnc3[nH]ccc3n12 [Upadacitinib] | 0.9 | 0 |
| Cn1ncc(Cl)c1-c1cc(C(=O)N[C@H](CN)Cc2ccc(F)c(F)c2)oc1Cl [Uprosertib] | 7.6 | 11.2 |
| CS(=O)(=O)c1ccc(-c2cnc(N)c(C(=O)Nc3ccccc3)n2)cc1 [VE-821] | 2 | 4.7 |
| O=C(O)CC1CC(c2ccccc2)=NO1 (configuration not stated) [VGX-1027] | 0 | 0 |
| C=CC(=O)N1CC/C(=C\c2ccc(F)c([N+](=O)[O-])c2)C(=O)/C(=C/c2ccc(F)c([N+](=O)[O-])c2)C1 [VLX1570] | 21.1 | 19.3 |
| CNC(=O)c1ccccc1Nc1cc(Nc2ccc(N3CCOCC3)cc2OC)ncc1C(F)(F)F [VS-4718] | 1.9 | 0 |
| CCCC(CCC)C(=O)O [Valproic acid] | 1.6 | 0.9 |
| CCCCC(=O)OCC(=O)[C@]1(O)Cc2c(O)c3c(c(O)c2[C@@H](O[C@H]2C[C@H](NC(=O)C(F)(F)F)[C@H](O)[C@H](C)O2)C1)C(=O)c1c(OC)cccc1C3=O [Valrubicin] | 8.6 | 8 |
| COc1cc2/c(=N/c3ccc(Br)cc3F)nc[nH]c2cc1OCC1CCN(C)CC1 [Vandetanib] | 0 | 0 |

| Compound | drug sensitivity score (MDA-MB-453 [1]) | drug sensitivity score (MDA-MB-453 [2]) |
| --- | --- | --- |
| CCc1c(C(=O)C(N)=O)c2c(OCC(=O)O)cccc2n1Cc1ccccc1 [Varespladib] | 0 | 0.8 |
| C[C@@H]1COC(Nc2ccc3ncnc(Nc4ccc(OCc5nccs5)c(Cl)c4)c3c2)=N1 [Varlitinib] | 6.3 | 9.1 |
| Clc1ccc(Nc2nnc(Cc3ccncc3)c3ccccc23)cc1 [Vatalanib] | 0.8 | 0.3 |
| C[C@]1(c2nc3c(C(N)=O)cccc3[nH]2)CCCN1 [Veliparib] | 1.6 | 2.9 |
| CCCS(=O)(=O)Nc1ccc(F)c(C(=O)c2c[nH]c3ncc(-c4ccc(Cl)cc4)cc23)c1F [Vemurafenib] | 0 | 0 |
| CC1(C)CCC(CN2CCN(c3ccc(C(=O)NS(=O)(=O)c4ccc(NCC5CCOCC5)c([N+](=O)[O-])c4)c(Oc4cnc5[nH]ccc5c4)c3)CC2)=C(c2ccc(Cl)cc2)C1 [Venetoclax] | 0 | 0 |
| O=C(/C=C\n1cnc(-c2cc(C(F)(F)F)cc(C(F)(F)F)c2)n1)NNc1ccccn1 [Verdinexor] | 4.7 | 4.9 |
| CCCCOc1nc(N)c2c(n1)N(Cc1cccc(CN3CCCC3)c1)CC(=O)N2 [Vesatolimod] | 3 | 0 |
| COc1cccc(-c2ccc(NC(=O)C3=C(C(=O)O)CCC3)c(F)c2)c1 [Vidofludimus] | 0.4 | 0 |
| CC[C@]1(O)C[C@@H]2CN(CCc3c([nH]c4ccccc34)[C@@](C(=O)OC)(c3cc4c(cc3OC)N(C)[C@H]3[C@@](O)(C(=O)OC)[C@H](OC(C)=O)[C@]5(CC)C=CCN6CC[C@]43[C@@H]65)C2)C1 [Vinblastine] | 10 | 8.4 |
| CC[C@]1(O)C[C@H]2CN(CCc3c([nH]c4ccccc34)[C@@](C(=O)OC)(c3cc4c(cc3OC)N(C=O)[C@H]3[C@@](O)(C(=O)OC)[C@H](OC(C)=O)[C@]5(CC)C=CCN6CC[C@]43[C@@H]65)C2)C1 [Vincristine] | 14.1 | 8.1 |
| CC[C@]12C=CCN3CC[C@@]4(c5cc([C@@]6(C(=O)OC)C[C@@H]7C[C@@H](C(C)(F)F)CN(Cc8c6[nH]c6ccccc86)C7)c(OC)cc5N(C)[C@H]4[C@@](O)(C(=O)OC)[C@@H]1OC(C)=O)[C@@H]32 [Vinflunine] | 2.6 | 1.3 |
| CCC1=C[C@@H]2CN(C1)Cc1c([nH]c3ccccc13)[C@@](C(=O)OC)(c1cc3c(cc1OC)N(C)[C@H]1[C@@](O)(C(=O)OC)[C@H](OC(C)=O)[C@]4(CC)C=CCN5CC[C@]31[C@@H]54)C2 [Vinorelbine] | 23.2 | 19 |
| CS(=O)(=O)c1ccc(C(=O)Nc2ccc(Cl)c(-c3ccccn3)c2)c(Cl)c1 [Vismodegib] | 0 | 0 |
| CNC(=O)c1cccc(-c2ccc3c(N4CCOC[C@@H]4C)nc(N4CCOC[C@@H]4C)nc3n2)c1 [Vistusertib] | 16.3 | 16.9 |
| CC[C@@H]1C(=O)N(C)c2cnc(Nc3ccc(C(=O)N[C@H]4CC[C@H](N5CCN(CC6CC6)CC5)CC4)cc3OC)nc2N1C(C)C [Volasertib] | 10.5 | 7.8 |
| O=C(CCCCCCC(=O)Nc1ccccc1)NO [Vorinostat] | 16.4 | 15.6 |
| Oc1nc(-c2ccc(C(F)(F)F)cc2)nc2c1CSCC2 [XAV-939] | 0.2 | 0.1 |
| FC(F)c1nc2ccccc2n1-c1nc(N2CCOCC2)nc(N2CCOCC2)n1 [ZSTK474] | 14.9 | 15.6 |
| Cc1sc2c(c1C)C(c1ccc(Cl)cc1)=N[C@@H](CC(=O)NCCCCNC(=O)COc1cccc3c1C(=O)N(C1CCC(=O)NC1=O)C3=O)c1nnc(C)n1-2 (some centres not stated) [dBET1] | 12.2 | 13.2 |
